Laboratory results as given in ChEMBL document CHEMBL4732049, “Anti-tuberculosis activity and its structure-activity relationship (SAR) studies of oxadiazole derivatives: A key review” (Eur J Med Chem, 2021).
Values after ≈ are worked out from the molar mass of the structure shown.

Experiments:
[1] = system: Mycobacterium tuberculosis; assay: Antimycobacterial activity against Mycobacterium tuberculosis H37Rv incubated for 5 days by two-fold serial dilution method; format: functional; settings: 120 h, time 5 day
[2] = system: Mycobacterium tuberculosis; assay: Antimycobacterial activity against Mycobacterium tuberculosis H37Rv ATCC 27294 incubated for 5 days by microplate alamar blue assay; format: functional; settings: H37Rv ATCC 27294, 120 h, time 5 day
[3] = system: Mycobacterium tuberculosis; assay: Antimycobacterial activity against Mycobacterium tuberculosis H37Rv; format: functional
[4] = system: Mycobacterium tuberculosis; assay: Bactericidal activity against Mycobacterium tuberculosis H37Rv at 8 ug/ml measured within 7 days; format: functional; settings: dose 8 µg/ml; time day <=7
[5] = Selectivity index, ratio of IC50 for CHO-K1 cells to MIC for Mycobacterium tuberculosis H37Rv; format: toxicity; settings: hamster
[6] = system: Mycobacterium tuberculosis; assay: Antimycobacterial activity against Mycobacterium tuberculosis H37Rv incubated for 7 days by microplate alamar blue assay; format: functional; settings: 168 h, time 7 day
CHO-K1 = assay: Cytotoxicity against CHO-K1 cells incubated for 24 hrs by MTT assay; format: cell-based; settings: Cricetulus griseus, CHO-K1, 24 h
[7] = system: Mycobacterium tuberculosis; assay: Antimycobacterial activity against Mycobacterium tuberculosis H37Rv incubated for 5 days by microplate alamar blue assay; format: functional; settings: 120 h, time 5 day
[8] = system: Mycobacterium tuberculosis; assay: Antimycobacterial activity against Mycobacterium tuberculosis H37Rv assessed as percentage inhibition at 250 ug/ml measured after 2 to 4 weeks by Lowensteine-Jensen method relative to control; format: functional; settings: time 2-4 weeks
[9] = Toxicity in brine shrimp nauplii assessed as induction of lethality incubated for 24 hrs by counting method; settings: artemia salina
[10] = system: Mycobacterium tuberculosis; assay: Antimycobacterial activity against Mycobacterium tuberculosis H37Ra ATCC 25177 by two fold dilution technique; format: functional
[11] = system: Mycobacterium tuberculosis; assay: Antimycobacterial activity against Mycobacterium tuberculosis H37Ra ATCC 25177; format: functional
[12] = system: Mycobacterium tuberculosis; assay: Antimycobacterial activity against Mycobacterium tuberculosis 209 incubated for 6 days by resazurin microtiter assay; format: functional; settings: Mycobacterium tuberculosis, 209, 144 h; time 6 day; read-out: MIC100
[13] = system: Mycobacterium tuberculosis; assay: Antimycobacterial activity against Mycobacterium tuberculosis H37Ra incubated for 6 days by resazurin microtiter assay; format: functional; settings: 144 h, time 6 day
[14] = system: Mycobacterium tuberculosis; assay: Antimycobacterial activity against Mycobacterium tuberculosis H37Rv ATCC 27294 incubated for 6 days by resazurin microtiter assay; format: functional; settings: H37Rv ATCC 27294, 144 h, time 6 day, read-out: MIC100
[15] = system: Mycobacterium tuberculosis; assay: Antimycobacterial activity against Mycobacterium tuberculosis H37Rv ATCC 27294 by agar dilution method; format: functional
Mycolicibacterium phlei = assay: Antimycobacterial activity against Mycobacterium phlei incubated for 5 days by microplate alamar blue assay; format: functional; settings: 120 h, time 5 day
[16] = system: Mycobacterium tuberculosis; assay: Antimycobacterial activity against Mycobacterium tuberculosis H37Rv ATCC 27294; format: functional
[17] = system: Mycolicibacterium smegmatis; assay: Antimycobacterial activity against Mycobacterium smegmatis ATCC607 incubated for 16 to 24 hrs by microdilution liquid method; format: functional; settings: time 16-24 hrs
[18] = system: Mycobacterium tuberculosis; assay: Antimycobacterial activity against Mycobacterium tuberculosis; format: functional, organism-based

Compound: c1csc(-c2nnc(Cc3cccc4ccccc34)o2)c1
- MIC [1]: 0.4 µM (≈ 0.117 µg/mL)

Compound: CN1CCN(Cc2nnc(-c3ccccc3)o2)CC1
- MIC [2]: 1.6 µg/mL (≈ 6.19 µM)

Compound: O=C(Nc1nnc(-c2ccc(F)cc2)o1)c1ccc(Cl)cc1
- MIC [3]: 1.6 µg/mL (≈ 5.04 µM)
- Activity [4]: >90%

Compound: Oc1ccc(-c2nnc(S)o2)cc1
- selectivity ratio [5]: 39
- MIC [6]: 0.6 µg/mL (≈ 3.09 µM)
- IC50 (CHO-K1): 23.8 µg/mL (≈ 123 µM)

Compound: Fc1ccc(-c2nnc(-c3n[nH]cc3-c3ccc(Cl)cc3)o2)cc1
- MIC [2]: 25 µg/mL (≈ 73.4 µM)

Compound: N#Cc1ccc(-c2nnc(-c3n[nH]cc3-c3ccc(Cl)cc3)o2)cc1
- MIC [2]: 25 µg/mL (≈ 71.9 µM)

Compound: Cn1c(-c2cccc(Cl)c2Cl)nc2cc(-c3nc(-c4ccc(Cl)cc4)no3)ccc21
- MIC [7]: 1.6 µg/mL (≈ 3.51 µM)

Compound: Cn1c(-c2cccc(Cl)c2Cl)nc2cc(-c3nc(-c4ccccc4Cl)no3)ccc21
- MIC [7]: 1.6 µg/mL (≈ 3.51 µM)

Compound: Cn1c(-c2cccc(Cl)c2F)nc2cc(-c3nc(-c4ccc(Cl)cc4)no3)ccc21
- MIC [7]: 1.6 µg/mL (≈ 3.64 µM)

Compound: Cc1ccc2nc(Cl)c(CN(c3ccccc3)c3nnc(-c4cccnc4)o3)cc2c1
- inhibition at 250 µg/mL [8]: 96%
- LC50 at 24 h [9]: 26 µM

Compound: Clc1ccc2nc(Cl)c(CN(c3ccccc3)c3nnc(-c4cccnc4)o3)cc2c1
- inhibition at 250 µg/mL [8]: 96%
- LC50 at 24 h [9]: 26 µM

Compound: Cc1nn(-c2ccccc2)c(Oc2cccc(C(F)(F)F)c2)c1-c1nnc(-c2ccc(Br)cc2)o1
- inhibition at 250 µg/mL [8]: 91%

Compound: Cc1ccc(-c2nnc(-c3c(C)nn(-c4ccccc4)c3Oc3cccc(F)c3)o2)cc1
- inhibition at 250 µg/mL [8]: > 90%

Compound: Cc1ccc(-c2nnc(-c3c(C)nn(-c4ccccc4)c3Oc3ccc(F)cc3)o2)cc1
- inhibition at 250 µg/mL [8]: > 90%

Compound: Cc1nn(-c2ccccc2)c(Oc2ccc(F)cc2)c1-c1nnc(-c2ccc(Br)cc2)o1
- inhibition at 250 µg/mL [8]: 91%

Compound: CC1(C)Cc2c(C#CCO)c(NC(=O)C(C)(C)C)cc(-c3nnc(-c4ccc(C(F)(F)F)cc4)o3)c2O1
- MIC [10]: 2 µg/mL (≈ 3.89 µM)
- IC90 [11]: 5.7 µM

Compound: Clc1nc2ccccc2cc1CN(c1ccccc1)c1nnc(-c2cccnc2)o1
- inhibition at 250 µg/mL [8]: 96%
- LC50 at 24 h [9]: 26 µM

Compound: O=C(Nc1nnc(-c2ccc(Cl)cc2)o1)c1ccc([N+](=O)[O-])s1
- MIC [12]: 7.8 µg/mL (≈ 22.2 µM)
- MIC ([13]; read-out: MIC100): 7.8 µg/mL (≈ 22.2 µM)
- MIC [14]: 7.8 µg/mL (≈ 22.2 µM)

Compound: CN1CCN(Cc2nnc(-c3ccc(Cl)cc3)o2)CC1
- MIC [2]: 3.12 µg/mL (≈ 10.7 µM)

Compound: COc1ccc(-c2cc(-c3nnc(C)o3)nn2-c2ccc(NC(=O)c3ccc(F)cc3)cc2)cc1
- MIC [15]: > 50 µg/mL

Compound: O=C(Nc1nnc(-c2ccc(Cl)cc2)o1)c1ccc([N+](=O)[O-])[nH]1
- MIC [12]: 7.8 µg/mL (≈ 23.4 µM)
- MIC ([13]; read-out: MIC): 7.8 µg/mL (≈ 23.4 µM)
- MIC [14]: 31.2 µg/mL (≈ 93.6 µM)

Compound: Cc1nnc(-c2cc(-c3ccc(Cl)cc3)n(-c3ccc(NC(=O)c4ccccc4Cl)cc3)n2)o1
- MIC [15]: 1.56 µg/mL (≈ 3.18 µM)

Compound: O=C(Nc1nnc(-c2ccc(Cl)cc2)o1)c1ccc([N+](=O)[O-])o1
- MIC [12]: 7.8 µg/mL (≈ 23.3 µM)
- MIC ([13]; read-out: MIC100): 7.8 µg/mL (≈ 23.3 µM)
- MIC [14]: 7.8 µg/mL (≈ 23.3 µM)

Compound: O=c1[nH]nc(Cc2coc3cc(Cl)ccc23)o1
- MIC [7]: 3.12 µg/mL (≈ 12.5 µM)
- MIC (Mycolicibacterium phlei): 3.12 µg/mL (≈ 12.5 µM)

Compound: O=C(Nc1nnc(-c2ccc(Cl)cc2)o1)c1cccc([N+](=O)[O-])c1
- MIC [12]: 7.8 µg/mL (≈ 22.6 µM)
- MIC ([13]; read-out: MIC100): 7.8 µg/mL (≈ 22.6 µM)
- MIC [14]: 7.8 µg/mL (≈ 22.6 µM)

Compound: Cc1nn(-c2ccccc2)c(Oc2cccc(F)c2)c1-c1nnc(-c2ccccc2)o1
- inhibition at 250 µg/mL [8]: 91%

Compound: O=C(Nc1nnc(-c2ccc(Cl)cc2)o1)c1ccccc1
- MIC [12]: 31.2 µg/mL (≈ 104 µM)
- MIC [14]: 7.8 µg/mL (≈ 26 µM)

Compound: CO[C@H]1O[C@H](Cc2nnc(C)o2)[C@H](OCc2ccccc2)[C@H](OCc2ccccc2)[C@H]1OCc1ccccc1
- MIC [16]: 60 µM (≈ 31.8 µg/mL)

Compound: COc1ccc(-c2cc(-c3nnc(C)o3)nn2-c2ccc(NC(=O)c3ccccc3)cc2)cc1
- MIC [15]: > 50 µg/mL

Compound: O=c1[nH]nc(Cc2coc3ccc(Cl)cc23)o1
- MIC [7]: 3.12 µg/mL (≈ 12.5 µM)
- MIC (Mycolicibacterium phlei): 3.12 µg/mL (≈ 12.5 µM)

Compound: COc1ccc(-c2nnc(CN3CCN(C)CC3)o2)cc1
- MIC [2]: 3.12 µg/mL (≈ 10.8 µM)

Compound: O=c1[nH]nc(Cc2coc3cc(Br)ccc23)o1
- MIC [7]: 1.56 µg/mL (≈ 5.29 µM)
- MIC (Mycolicibacterium phlei): 1.56 µg/mL (≈ 5.29 µM)

Compound: S=c1[nH]nc(CN2CCOCC2)o1
- MIC [17]: 7.8 µg/mL (≈ 38.8 µM)

Compound: Cc1cccc(Oc2c(-c3nnc(-c4ccc(F)cc4)o3)c(C)nn2-c2ccccc2)c1
- inhibition at 250 µg/mL [8]: 91%

Compound: S=c1[nH]nc(CN2CCSCC2)o1
- MIC [17]: 7.8 µg/mL (≈ 35.9 µM)

Compound: O=C(CCCC(F)(F)F)C1CCC(c2nc(-c3nccs3)no2)CC1 (stereo not given)
- IC50 [18]: 0.4 µM

Compound: CN1CCN(Cc2nnc(-c3ccc(O)cc3)o2)CC1
- MIC [2]: 3.12 µg/mL (≈ 11.4 µM)

Compound: Cc1nnc(-c2cc(-c3ccc(Cl)cc3)n(-c3ccc(NC(=O)c4ccc(Cl)cc4)cc3)n2)o1
- MIC [15]: 3.13 µg/mL (≈ 6.38 µM)

Compound: NC(=O)c1cnccn1 [PYRAZINAMIDE]
- MIC [7]: 3.12 µg/mL (≈ 25.4 µM)
- MIC (Mycolicibacterium phlei): 3.12 µg/mL (≈ 25.4 µM)
- MIC [2]: 3.12 µg/mL (≈ 25.3 µM)

Compound: CO[C@H]1/C=C/O[C@@]2(C)Oc3c(C)c(O)c4c(O)c(c(/C=N/N5CCN(C)CC5)c(O)c4c3C2=O)NC(=O)/C(C)=C\C=C\[C@H](C)[C@H](O)[C@@H](C)[C@@H](O)[C@@H](C)[C@H](OC(C)=O)[C@@H]1C [RIFAMPIN]
- inhibition at 250 µg/mL [8]: 98%
- MIC [6]: 0.2 µg/mL (≈ 0.243 µM)

Compound: CN[C@@H]1[C@H](O[C@H]2[C@H](O[C@H]3[C@H](O)[C@@H](O)[C@H](N=C(N)N)[C@@H](O)[C@@H]3N=C(N)N)O[C@@H](C)[C@]2(O)C=O)O[C@@H](CO)[C@H](O)[C@H]1O [STREPTOMYCIN]
- MIC [7]: 6.25 µg/mL (≈ 10.7 µM)
- MIC (Mycolicibacterium phlei): 6.25 µg/mL (≈ 10.7 µM)
- MIC [17]: 4 µg/mL (≈ 6.88 µM)
